According to ChEMBL document CHEMBL1153271, “3,4-Diamino-1,2,5-thiadiazole as potent and selective CXCR2 antagonists” (Bioorg Med Chem Lett, 2009):
pIC50, pKi: −log10 of the molar value.

Tests used:
[1] = biological target: T1, C-X-C chemokine receptor type 2 (Homo sapiens, UniProt P25025); assay: Displacement of IL8 from CXCR2 receptor
T1 sequence (P25025 whole entry): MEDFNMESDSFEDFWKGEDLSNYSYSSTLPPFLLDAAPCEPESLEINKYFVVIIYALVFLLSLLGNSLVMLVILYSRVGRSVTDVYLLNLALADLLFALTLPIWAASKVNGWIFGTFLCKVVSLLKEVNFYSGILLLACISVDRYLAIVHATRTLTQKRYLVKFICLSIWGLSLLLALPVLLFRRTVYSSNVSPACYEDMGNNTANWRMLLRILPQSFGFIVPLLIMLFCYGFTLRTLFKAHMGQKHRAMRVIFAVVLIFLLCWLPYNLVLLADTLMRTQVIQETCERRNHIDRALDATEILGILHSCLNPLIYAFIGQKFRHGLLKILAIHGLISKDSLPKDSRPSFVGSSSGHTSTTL

[2] = biological target: T2, C-X-C chemokine receptor type 1 (Homo sapiens, UniProt P25024); assay: Displacement of IL8 from CXCR1 receptor
T2 sequence (P25024 whole entry): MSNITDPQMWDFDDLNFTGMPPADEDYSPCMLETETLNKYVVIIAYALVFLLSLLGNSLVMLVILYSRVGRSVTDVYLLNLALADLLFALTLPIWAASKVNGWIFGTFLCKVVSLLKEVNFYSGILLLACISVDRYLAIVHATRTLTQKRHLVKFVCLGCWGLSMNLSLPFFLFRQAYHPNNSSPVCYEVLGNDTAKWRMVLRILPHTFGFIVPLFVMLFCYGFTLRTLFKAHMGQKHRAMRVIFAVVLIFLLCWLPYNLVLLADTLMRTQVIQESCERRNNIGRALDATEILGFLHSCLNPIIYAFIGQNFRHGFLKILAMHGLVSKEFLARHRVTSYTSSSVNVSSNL

[3] = biological target: T1, C-X-C chemokine receptor type 2; assay: Displacement of [125I]CXCL1 from CXCR2 receptor in human PMN assessed as myeloperoxidase release
[4] = biological target: T2, C-X-C chemokine receptor type 1; assay: Displacement of [125I]CXCL8 from CXCR1 receptor in human PMN assessed as myeloperoxidase release

pKi [1]	pKi [2]	pIC50 [3]	pIC50 [4]	Structure (SMILES)
5.64				CC[C@@H](Nc1nsnc1Nc1cccc(C(=O)N(C)C)c1O)c1cc(C)co1
5.00	7.28			Cc1ccc([C@H](Nc2nsnc2Nc2cccc(C(=O)N(C)C)c2O)C(F)(F)F)o1
7.04		7.68		Cc1ccc([C@H](Nc2nsnc2Nc2cccc(C(=O)N(C)C)c2O)C(C)(C)C)o1
5.39				CC[C@@H](Nc1nsnc1Nc1cccc(C(=O)N(C)C)c1O)c1cc(F)cc(F)c1
5.69				CN(C)C(=O)c1cccc(Nc2nsnc2N[C@@H](c2ccccc2)C2CC2)c1O
6.94	7.89			Cc1ccc([C@H](Nc2nsnc2Nc2cccc(C(=O)N(C)CCC#N)c2O)C(C)(C)C)o1
7.10				CC(C)c1coc([C@H](Nc2nsnc2Nc2cccc(C(=O)N(C)CCC#N)c2O)C(C)(C)C)c1
7.36				CN(CCC#N)C(=O)c1cccc(Nc2nsnc2N[C@@H](c2ccco2)C(C)(C)C)c1O
5.89				Cc1ccc([C@H](Nc2nsnc2Nc2cccc(C(=O)N(C)C)c2O)C(C)C)s1
6.13				CC[C@@H](Nc1nsnc1Nc1ccc(C(F)(F)F)c(C(=O)N(C)C)c1O)c1ccc(C)o1
5.00				C[C@H](Nc1nsnc1Nc1cccc(C(=O)N(C)C)c1O)C(C)(C)C
5.29				CC[C@@H](Nc1nsnc1Nc1cccc(C(=O)N(C)C)c1O)c1ccccc1
5.00				CN(C)C(=O)c1cccc(Nc2nsnc2N[C@@H](c2ccc3c(c2)OCCO3)C(C)(C)C)c1O
5.89	7.11			CN(C)C(=O)c1cccc(Nc2nsnc2N[C@@H](c2cccc(F)c2)C(C)(C)C)c1O
6.42				CN(C)C(=O)c1cccc(Nc2nsnc2N[C@@H](c2ccco2)C(C)(C)C)c1O
5.62	7.82	7.44	5.41	Cc1ccc([C@H](Nc2nsnc2Nc2cccc(C(=O)N(C)C)c2O)C(C)C)o1
5.37	7.44			CN(C)C(=O)c1cccc(Nc2nsnc2NC(c2ccccc2)C(F)(F)F)c1O (stereo not drawn)
5.63				CN(C)C(=O)c1cccc(Nc2nsnc2N[C@@H](c2cc3ccccc3o2)C(C)(C)C)c1O
5.52				CC[C@@H](Nc1nsnc1Nc1cccc(C(=O)N(C)C)c1O)c1ccc(C)o1
5.00				CN(C)C(=O)c1cccc(Nc2nsnc2N[C@@H](c2ccc3c(c2)CCC3)C(C)(C)C)c1O
5.90				Cc1ccc([C@H](Nc2nsnc2Nc2cccc(C(=O)N3CCOCC3)c2O)C(C)(C)C)o1
6.77	7.42			Cc1ccc([C@H](Nc2nsnc2Nc2ccc(C(F)(F)F)c(C(=O)N(C)C)c2O)C(C)(C)C)o1
6.48	7.28			CN(C)C(=O)c1cccc(Nc2nsnc2N[C@@H](c2ccc3c(c2)OCO3)C(C)(C)C)c1O
